# Read-outs that look alike come from different tables or passages of the source.
# Experiments:
# [1] = system: K. pneumoniae NCTC 418; assay: microbe, parasite or virus in culture; details: for MIC K. pneumoniae NCTC418: supplement CSV
# Summary of the method: (§1)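 Read-out was visible growth after MTT addition, the MIC being the lowest inhibitory peptide concentration. Bacteria grown to log phase in LB were exposed in MH medium to peptide from 64 μg/mL in twofold dilutions for 15-18h at 37°C.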
# [2] = system: A. baumannii ATCC19606; assay: microbe, parasite or virus in culture; details: for MIC A. baumannii ATCC19606: supplement CSV
# Summary of the method: as §1
# [3] = system: S. aureus COL (MRSA); assay: microbe, parasite or virus in culture; details: for MIC S. aureus COL (MRSA): supplement CSV
# Summary of the method: as §1
# [4] = system: P. aeruginosa PAO1; assay: microbe, parasite or virus in culture; details: for MIC P. aeruginosa PAO1: supplement CSV
# Summary of the method: as §1
# [5] = system: E. coli W3110; assay: microbe, parasite or virus in culture; details: for MIC E. coli W3110: supplement CSV
# Summary of the method: as §1
# [6] = system: P. aeruginosa PA14 4.18 (pmrB); details: for MIC P. aeruginosa PA14 4.18: supplement CSV
# [7] = system: P. aeruginosa PA14; assay: microbe, parasite or virus in culture; details: for MIC P. aeruginosa PA14: supplement CSV
# Method: (§2) Minimum inhibitory concentration assay
# (§3) Antimicrobial activity was assayed against P. aeruginosa PAO1, K. pneumoniae NCTC418, E. coli W3110, A. baumannii ATCC 19606, methicillin-resistant S. aureus COL (MRSA), and for selected peptides on P. aeruginosa PA14 and the polymyxin-B-resistant derivative PA14 2P4, as well as the clinical isolates ZEM-1A and ZEM9A, K. pneumoniae OXA-48, S. aureus Newman, Enterobacter cloacae and Burkholderia cenocepacia. The minimal inhibitory concentration (MIC) was determined by using broth microdilution method. A colo ny of bacteria was picked and grown in Luria-Bertani (LB) medium overnight at 37°C. For E. coli BW25113 sbmA::kan the medium was supplemented with 25 mg/L of kanamycin. The next day, the culture was then regrown in LB medium to log phase (OD600 = 0.6 to 0.8), which lasted approximately 4 h, and diluted to an OD600 of 0.022 in the desired medium. Stock solutions of 1 mg/mL of the samples were prepared in sterilized milliQ water and diluted to the beginning concentration of 64 μg/mL in 300 μL Mueller Hinton (MH)-medium. The diluted samples were added to first well of 96-well microtiter plate (TPP, untreated, Faust Laborbedarf, AG, Schaffhausen) and diluted serially by ½. Finally, 4 μL of the bacterial suspension was inoculated into the sample solutions (150 μL/well) with a final inoculation of about 5∙10^5 CFU/mL. The plates were then incubated at 37°C for 15-18h. For each assay, sterility (broth only) and growth control (broth with bacterial inoculum, without antibiotics) were checked with two columns in the plate. The next day, 15 μL of 3-(4,5-dimethylthiazol-2-yl)-2,5-diphenyltetrazolium bromide (MTT) was added to each well of the plate, such a way that MIC was defined as the lowest concentration of the peptide that inhibited visible growth of the tested
# [8] = system: P. aeruginosa ZEM9A; assay: microbe, parasite or virus in culture; details: for MIC P. aeruginosa ZEM9A: supplement CSV
# Method: as §2, §3
# [9] = system: P. aeruginosa PA14 2P4 (pmrB); assay: microbe, parasite or virus in culture; details: for MIC P. aeruginosa PA14 2P4: supplement CSV
# Method: as §2, §3
# [10] = system: E. cloacae; assay: microbe, parasite or virus in culture
# Method: as §2, §3
# [11] = system: P. aeruginosa ZEM-1A; assay: microbe, parasite or virus in culture; details: for MIC P. aeruginosa ZEM-1A: supplement CSV
# Method: as §2, §3
# [12] = system: K. pneumoniae OXA-48; assay: microbe, parasite or virus in culture; details: for MIC K. pneumoniae OXA-48: supplement CSV
# Method: as §2, §3
# [13] = polymyxin B resistant strain, 12.5% MHB pH 7.4, 16–20 h at 37 °C
# [14] = polymyxin B resistant strain, full MHB pH 7.4, 16–20 h at 37 °C
substance,measurement,setting,value
"polymyxin B [PMB, reference compound]","MIC K. pneumoniae, 12.5% MHB","[1]; K. pneumoniae NCTC 418, 12.5% Müller–Hinton medium, 16–20 h at 37 °C",1 µg/mL
same,"MIC K. pneumoniae, Full MHB","[1]; K. pneumoniae NCTC 418, full Müller–Hinton medium, 16–20 h at 37 °C",0.5 µg/mL
same,MIC K. pneumoniae NCTC418,[1]; 12.5% MH pH 7.4,1 µg/mL
same,MIC K. pneumoniae NCTC418,[1]; full MH pH 7.4,0.5 µg/mL
same,"MIC A. baumannii, 12.5% MHB","[2]; A. baumannii ATCC19606, 12.5% Müller–Hinton medium, 16–20 h at 37 °C",0.5 µg/mL
same,"MIC A. baumannii, Full MHB","[2]; A. baumannii ATCC19606, full Müller–Hinton medium, 16–20 h at 37 °C",0.25 µg/mL
same,MIC A. baumannii ATCC19606,[2]; 12.5% MH pH 7.4,0.5 µg/mL
same,MIC A. baumannii ATCC19606,[2]; full MH pH 7.4,0.25 µg/mL
same,"MIC S. aureus, 12.5% MHB","[3]; S. aureus COL (MRSA), 12.5% Müller–Hinton medium, 16–20 h at 37 °C",>16 / 16 μg/mL
same,"MIC S. aureus, Full MHB","[3]; S. aureus COL (MRSA), full Müller–Hinton medium, 16–20 h at 37 °C",>16 / 16 μg/mL
same,MIC S. aureus COL (MRSA),[3]; 12.5% MH pH 7.4,16 µg/mL
same,MIC S. aureus COL (MRSA),[3]; full MH pH 7.4,>16 µg/mL
same,"MIC P. aeruginosa, 12.5% MHB","[4]; P. aeruginosa PAO1, 12.5% Müller–Hinton medium, 16–20 h at 37 °C",1 µg/mL
same,"MIC P. aeruginosa, Full MHB","[4]; P. aeruginosa PAO1, full Müller–Hinton medium, 16–20 h at 37 °C",0.5 µg/mL
same,MIC P. aeruginosa PAO1,[4]; 12.5% MH pH 7.4,1 µg/mL
same,MIC P. aeruginosa PAO1,[4]; full MH pH 7.4,0.5 µg/mL
same,"MIC E. coli, 12.5% MHB","[5]; E. coli W3110, 12.5% Müller–Hinton medium, 16–20 h at 37 °C, broth microdilution",0.5 µg/mL
same,"MIC E. coli, Full MHB","[5]; E. coli W3110, full Müller–Hinton medium, 16–20 h at 37 °C, broth microdilution",0.25 µg/mL
same,MIC E. coli W3110,[5]; 12.5% MH pH 7.4,0.5 µg/mL
same,MIC E. coli W3110,[5]; full MH pH 7.4,0.25 µg/mL
same,"MIC P. aeruginosa PA14 4.18 (pmrB), 12.5% MHB",[6]; [13],1 µg/mL
same,"MIC P. aeruginosa PA14 4.18 (pmrB), full MHB",[6]; [14],2 µg/mL
same,MIC P. aeruginosa PA14 4.18,[6]; 12.5% MH pH 7.4,1 µg/mL
same,MIC P. aeruginosa PA14 4.18,[6]; full MH pH 7.4,2 µg/mL
same,"MIC P. aeruginosa PA14, 12.5% MHB","[7]; 12.5% MHB pH 7.4, 16–20 h at 37 °C, two different duplicate MIC determinations",1 µg/mL
same,"MIC P. aeruginosa PA14, full MHB","[7]; full MHB pH 7.4, 16–20 h at 37 °C, two different duplicate MIC determinations",< 0.5 µg/mL
same,MIC P. aeruginosa PA14,[7]; 12.5% MH pH 7.4,1 µg/mL
same,MIC P. aeruginosa PA14,[7]; full MH pH 7.4,<0.5 µg/mL
same,"MIC P. aeruginosa ZEM9A, 12.5% MHB","[8]; clinical isolate, 12.5% MHB pH 7.4, 16–20 h at 37 °C",2 µg/mL
same,"MIC P. aeruginosa ZEM9A, full MHB","[8]; clinical isolate, full MHB pH 7.4, 16–20 h at 37 °C",> 64 µg/mL
same,MIC P. aeruginosa ZEM9A,[8]; 12.5% MH pH 7.4,2 µg/mL
same,MIC P. aeruginosa ZEM9A,[8]; full MH pH 7.4,>64 µg/mL
same,"MIC P. aeruginosa PA14 2P4 (pmrB), 12.5% MHB",[9]; [13],1 µg/mL
same,"MIC P. aeruginosa PA14 2P4 (pmrB), full MHB",[9]; [14],4 µg/mL
same,MIC P. aeruginosa PA14 2P4,[9]; 12.5% MH pH 7.4,1 µg/mL
same,MIC P. aeruginosa PA14 2P4,[9]; full MH pH 7.4,4 µg/mL
same,"MIC E. cloacae, 12.5% MHB","[10]; 12.5% MHB pH 7.4, 16–20 h at 37 °C",1 to 2 µg/mL
same,"MIC E. cloacae, full MHB","[10]; full MHB pH 7.4, 16–20 h at 37 °C",2 µg/mL
same,MIC E. cloacae,"[10]; supplement CSV, 12.5% MH pH 7.4",1 to 2 µg/mL
same,"MIC P. aeruginosa ZEM-1A, 12.5% MHB","[11]; clinical isolate, 12.5% MHB pH 7.4, 16–20 h at 37 °C, cells marked c: single measurement (in duplicates)",8 µg/mL
same,"MIC P. aeruginosa ZEM-1A, full MHB","[11]; clinical isolate, full MHB pH 7.4, 16–20 h at 37 °C, cells marked c: single measurement (in duplicates)",16 µg/mL
same,MIC P. aeruginosa ZEM-1A,[11]; 12.5% MH pH 7.4,8 µg/mL
same,MIC P. aeruginosa ZEM-1A,[11]; full MH pH 7.4,16 µg/mL
same,"MIC K. pneumoniae OXA-48, 12.5% MHB","[12]; carbapenem-resistant, 12.5% MHB pH 7.4, 16–20 h at 37 °C",1–2/1–2 μg/mL
same,"MIC K. pneumoniae OXA-48, full MHB","[12]; carbapenem-resistant, full MHB pH 7.4, 16–20 h at 37 °C",1–2/1–2 μg/mL
same,MIC K. pneumoniae OXA-48,[12]; 12.5% MH pH 7.4,1 to 2 µg/mL
same,MIC K. pneumoniae OXA-48,[12]; full MH pH 7.4,1 to 2 µg/mL

# From paper PMC11571207, “Stereorandomized Oncocins with Preserved Ribosome Binding and Antibacterial Activity” (Journal of Medicinal Chemistry, 2024)
